According to article PMC3577726 (PLoS ONE, 2013):
No end group written: not given here.

What was measured:
Male C57BL/6J mice [1] = test: Serum insulin concentration after intraperitoneal or oral treatment, with or without sitagliptin and exendin(9–39); format: in vivo, mouse; details: for Serum insulin concentration, i.p. 7 µg/kg alone / Serum insulin concentration, oral 10 µg/kg: blood 20 min later; for Serum insulin concentration, i.p. 7 µg/kg alone: four to six mice; for Serum insulin concentration, oral 10 µg/kg: 10 µg/kg orally, with or without sitagliptin and exendin(9–39)
Method: (§1) Male C57BL/6J mice (Jackson Laboratory, Bar Harbor, ME) were maintained in a specific pathogen-free facility under a 12 h-light, 12 h-dark cycle and were moved to a conventional facility for experiments at 6 to 8 weeks of age. All animal experiments were approved by the animal ethics committee of Kyushu University. Animals were anesthetized with sevoflurane and blood (maximally up to 100 µl) was collected from the orbital plexus of mice treated as indicated. Dipeptidyl peptidase (DPP)-IV inhibitor (Merck-Millipore, Billerica, MA) was added to the samples to a final concentration of 100 µM.
(B, C) Mice deprived of food for 5 h (blood glucose level, 103.5 mg/dl) were administered sitagliptin (1 µg/kg) or saline orally and then 30 min later were treated with ucOC or GlaOC intraperitoneally (7 µg/kg) (B) or orally (10 µg/kg) (C) in combination with intraperitoneal injection of exendin(9–39) (25 nmol/kg) or saline. […] All data are means ± SEM for four to six mice. *P < 0.05, **P < 0.01, †P = 0.06 versus control (open bar) or for the indicated comparisons (Student's t test).

Male C57BL/6J mice [2] = system: Male C57BL/6J mice
Method: as §1

STC-1 cells = test: GLP-1 secretion from STC-1 cells (ELISA of culture supernatant); format: cell-based, mouse
Method: STC-1 cells (kindly provided from Dr. G. Tsujimoto, Kyoto University), a mouse enteroendocrine cell line were cultured under a humidified atmosphere of 5% CO2 at 37 °C in Dulbecco's modified Eagle's medium supplemented with 15% horse serum, 5% fetal bovine serum, penicillin (100 U/ml), and streptomycin (0.1 mg/ml). The cells were routinely passaged at 80 to 90% confluence.
STC-1 cells in a six-well plate were washed three times and then incubated with recombinant mouse ucOC or with GlaOC (ANA Spec, Fremont, CA) in Hanks' balanced salt solution for 60 min at 37 °C. The culture supernatants were then assayed for GLP-1 with ELISA kit (Shibayagi, Gunma, Japan).
Figure 2 OC-induced GLP-1 secretion in STC-1 cells. STC-1 cells were incubated for 60 min with vehicle (control) or the indicated concentrations of ucOC, GlaOC, or PMA. Data are expressed relative to the control value (33.1 pg per 1 × 10^5 cells) and are means ± SEM from four to eight independent experiments. *P < 0.05, **P < 0.01 versus control (Student's t test).

Male C57BL/6J mice [3] = test: Serum GLP-1 concentration after intraperitoneal administration of OC; format: in vivo, mouse
Method: (§2) Figure 3 Effect of intraperitoneal or oral administration of OC on serum GLP-1 concentration. (A) Mice were deprived of food for 5 h and then injected intraperitoneally with saline (control) or the indicated doses of recombinant ucOC, of GlaOC. Blood was collected 20 min later for determination of the serum concentration of GLP-1. Part of mice was orally administered with sitagliptin (1 µg/kg) 30 min before injection of OC. (B) Mice deprived of food for 5 h were treated orally with saline (control) or the indicated doses of ucOC or GlaOC. Blood samples collected 20 min later were assayed for serum GLP-1 concentration. All data are means ± SEM for five to seven mice. *P < 0.05, **P < 0.01 versus control (Student's t test).

Male C57BL/6J mice [4] = test: Serum GLP-1 concentration after oral administration of OC; format: in vivo, mouse; details: mice fasted 5 h, no sitagliptin pretreatment, blood 20 min later, five to seven mice
Method: as §2

[5] = mouse, in vivo
Method: Serum OC concentrations were measured with ELISA kit for mouse OC (Biomedical Technologies), which is formulated for both ucOC and GlaOC, with the two forms being discriminated with the use of hydroxyapatite. Serum (50 µl) was thus mixed with 10 mg of hydroxyapatite (Sigma-Aldrich) and rotated at 4 °C for 1 h, after which the hydroxyapatite (and bound GlaOC) was removed by centrifugation and the supernatant was assayed for ucOC.
Figure 5 Serum levels of total OC and ucOC after intraperitoneal or oral administration of ucOC or GlaOC. Serum levels of total OC (A) or ucOC (B) were measured 20 min after administration of ucOC or GlaOC at a dose of 7 µg/kg intraperitoneally (i.p.) or 10 µg/kg orally (p.o.) in mice that had been deprived of food for 5 h; black circles indicate values for individual mice, with the horizontal bars representing the mean values. *P < 0.05 versus saline-treated animals [one-way ANOVA followed by either Dunnett's multiple-comparison test (A) or Tukey's HSD post hoc test (B)].

[6] = Absorption of 125I-labeled ucOC into the systemic circulation (blood radioactivity); format: in vivo, mouse; details: n = 5 each
Method: An expression vector for a glutathione S-transferase-ucOC fusion protein was constructed by introduction of mouse OC cDNA into the vector pGEX-4T-1 (GE Healthcare, Buckinghamshire, UK). The fusion protein was produced in bacteria and purified with glutathione-Sepharose beads (GE Healthcare) according to standard procedures. The final washes of the beads were performed with a buffer containing 0.1% Triton X-114 (Sigma-Aldrich, St. Louis, MO) and then with the same buffer without detergent in order to remove endotoxin [17]. […] The purity of the ucOC preparation was assessed by sodium dodecyl sulfate-polyacrylamide gel electrophoresis with Tris-Tricine and staining with Coomassie blue, and the concentration and integrity of the protein were determined with an enzyme-linked immunosorbent assay (ELISA) kit for mouse OC (Biomedical Technologies, Stoughton, MA). […]
Figure 6 Absorption of ^125I-labeled ucOC into the systemic circulation. Mice were administered ^125I-labeled ucOC (5 µg/kg, 4,000 to 6,000 cpm) intraperitoneally (circles, n = 5) or orally (squares, n = 5), and blood was collected into tubes containing 5 mM EDTA (to prevent coagulation) at 30 and 60 min thereafter for measurement of radioactivity. The percentage of the administered radioactivity present in the circulation was calculated assuming a total blood volume of 2 ml. […]

[7] = cited from earlier work

N[C@@H](CC(=O)N1CCn2c(nnc2C(F)(F)F)C1)Cc1cc(F)c(F)cc1F [Sitagliptin, sitagliptin, reference compound]
Serum insulin concentration, sitagliptin alone (Male C57BL/6J mice [1]; mice fasted 5 h, sitagliptin 1 µg/kg orally): small increase in the serum insulin concentration

GlaOC: γ-carboxylated form of the bone-derived protein osteocalcin (ANA Spec) (YLGASVPSPDPLEPTREQCELNPACDELSDQYGLKTAYKRIYGITI; ends and bridges not checked; also: γ-carboxylated on three glutamic acid residues (places not given here); UniProt P86546 50-95, looked up)
Serum insulin concentration, i.p. 7 µg/kg alone (Male C57BL/6J mice [1]; mice fasted 5 h, 7 µg/kg i.p.): no effect on serum insulin | Serum insulin concentration, oral 10 µg/kg (Male C57BL/6J mice [1]; mice fasted 5 h): tended to increase serum insulin, although this effect did not achieve statistical significance | Serum GLP-1 level after tail vein injection of GlaOC (Male C57BL/6J mice [2]; fasted mice, data not shown): no effect | Serum insulin level after tail vein injection of GlaOC (Male C57BL/6J mice [2]; fasted mice, data not shown): no effect | Effect on GLP-1 secretion at the concentrations examined (STC-1 cells; 60 min): did not affect GLP-1 secretion | Serum GLP-1 level, i.p., sitagliptin-pretreated mice (Male C57BL/6J mice [3]; mice fasted 5 h, oral sitagliptin 1 µg/kg 30 min before, i.p., blood 20 min later): did not increase the serum GLP-1 level | Serum GLP-1 concentration after oral administration (Male C57BL/6J mice [4]): a similar effect was apparent

Osteocalcin (YLGASVPSPDPLEPTREQCELNPACDELSDQYGLKTAYKRIYGITI; ends and bridges not checked; cysteine pairing not given here; UniProt P86546 50-95, looked up) [osteocalcin, a peptide composed of 46 amino acids; form (uc- or Gla-) not specified at the place]
Absorption rate at fivefold higher oral dose [5]: 0.8% | Absorption rate at twofold higher oral dose [5]: 2%

^125I-labeled ucOC: ucOC iodinated with Na^125I as GST fusion, released with thrombin (YLGASVPSPDPLEPTREQCELNPACDELSDQYGLKTAYKRIYGITI; ends and bridges not checked; also: 125I label, site not given here; UniProt P86546 50-95, looked up)
Gross absorption, % of the administered radioactivity in the circulation at 30 min ([6]; 5 µg/kg (4,000 to 6,000 cpm) i.p. or orally, assuming total blood volume of 2 ml): 2 to 8% | Blood radioactivity at 60 min compared with 30 min ([6]; 5 µg/kg i.p. or orally): increased further or decreased to a small extent

calcitonin
Rate of absorption from the intestine into the bloodstream [7]: ~5%

exendin(9–39) [reference compound]
Antagonism of the exendin-4-induced increase in serum insulin (Male C57BL/6J mice [1]; exendin(9–39) 25 nmol/kg i.p. 30 min before exendin-4 25 nmol/kg i.p.): sensitive to prior injection of exendin(9–39) | Effect of exendin(9–39) on the sitagliptin-induced increase in serum insulin (Male C57BL/6J mice [1]; sitagliptin orally, exendin(9–39) i.p., data not shown): blocked by administration of exendin(9–39)

uncarboxylated osteocalcin (YLGASVPSPDPLEPTREQCELNPACDELSDQYGLKTAYKRIYGITI; ends and bridges not checked; cysteine pairing not given here; UniProt P86546 50-95, looked up) [ucOC, recombinant mouse uncarboxylated osteocalcin, cleaved from a glutathione S-transferase fusion protein produced in bacteria]
Serum insulin concentration, i.p. 7 µg/kg alone (Male C57BL/6J mice [1]; mice fasted 5 h, 7 µg/kg i.p.): significant increase | Serum insulin concentration, oral 10 µg/kg (Male C57BL/6J mice [1]; mice fasted 5 h): Essentially identical results | Serum insulin increase, i.p. 7 µg/kg with sitagliptin pretreatment (Male C57BL/6J mice [1]; oral sitagliptin 1 µg/kg 30 min before 7 µg/kg i.p.): enhanced by sitagliptin | Serum insulin increase, i.p. 7 µg/kg with sitagliptin and exendin(9–39) (Male C57BL/6J mice [1]; oral sitagliptin 1 µg/kg, 7 µg/kg i.p., exendin(9–39) 25 nmol/kg i.p.): abolished by exendin(9–39) | Serum concentration of GLP-1 at 30 min after i.v. injection (Male C57BL/6J mice [2]; 30 ng per animal, tail vein, mice fasted 5 h): further increased | Serum concentration of insulin after i.v. injection (Male C57BL/6J mice [2]; 30 ng per animal, tail vein, mice fasted 5 h, 15 and 30 min): increased as well | Serum concentration of GLP-1 at 15 min after i.v. injection (Male C57BL/6J mice [2]; 30 ng per animal, tail vein, mice fasted 5 h, four to six mice): significantly increased | Serum insulin concentration after i.v. 300 ng (Male C57BL/6J mice [2]; 300 ng per animal i.v., fasted mice, data not shown): no effect on the serum insulin concentration | Blood concentration after i.v. 300 ng (Male C57BL/6J mice [2]; mouse, in vivo, iv): 28 nM | Expected initial serum concentration after i.v. 30 ng (Male C57BL/6J mice [2]; mouse, in vivo, iv): ~30 ng/mL | Initial concentration in blood after i.v. 30 ng (Male C57BL/6J mice [2]; mouse, in vivo, iv): 2.7 nM | Effect on GLP-1 secretion at 30 ng/ml (STC-1 cells; 60 min, 30 ng/ml): no longer apparent | Effect on GLP-1 secretion at concentrations of >10 ng/ml (STC-1 cells; >10 ng/ml): markedly diminished | Serum GLP-1 concentration, i.p., without sitagliptin (Male C57BL/6J mice [3]; mice fasted 5 h, blood 20 min after i.p. injection, no DPP-IV inhibitor pretreatment, five to seven mice): increase in the serum concentration of GLP-1, but with only statistically insignificance | Serum GLP-1 concentration, i.p. 7 µg/kg, sitagliptin-pretreated (Male C57BL/6J mice [3]; mice fasted 5 h, oral sitagliptin 1 µg/kg 30 min before, 7 µg/kg i.p., blood 20 min later): significant increase | Serum GLP-1 concentration, i.p. 10 µg/kg, sitagliptin-pretreated (Male C57BL/6J mice [3]; mice fasted 5 h, oral sitagliptin 1 µg/kg 30 min before, 10 µg/kg i.p., blood 20 min later): no such effect | Effect on GLP-1 secretion at intraperitoneal doses of >7 µg/kg (Male C57BL/6J mice [3]; mice, i.p. >7 µg/kg): markedly diminished | Serum GLP-1 concentration after oral administration (Male C57BL/6J mice [4]): increased the serum concentration of GLP-1 in a dose-dependent manner
